Assay results reported in US9969741B2, “Pyrazolotriazines as inhibitors of nucleases” (MASARYKOVA UNIVERZITA, priority 2014, dated 2018).

Tests used:
MUS81/EME1 = target: T1, MUS81/EME1 (Homo sapiens, UniProt Q96NY9); test: Nuclease inhibition assay, MUS81/EME1 (3′ flap fluorescent DNA substrate, gel readout); assay type: biochemical; details: 5 nM enzyme, 5 nM 3′ flap substrate, 15 min at 30° C.
T1 sequence (Q96NY9 1-551): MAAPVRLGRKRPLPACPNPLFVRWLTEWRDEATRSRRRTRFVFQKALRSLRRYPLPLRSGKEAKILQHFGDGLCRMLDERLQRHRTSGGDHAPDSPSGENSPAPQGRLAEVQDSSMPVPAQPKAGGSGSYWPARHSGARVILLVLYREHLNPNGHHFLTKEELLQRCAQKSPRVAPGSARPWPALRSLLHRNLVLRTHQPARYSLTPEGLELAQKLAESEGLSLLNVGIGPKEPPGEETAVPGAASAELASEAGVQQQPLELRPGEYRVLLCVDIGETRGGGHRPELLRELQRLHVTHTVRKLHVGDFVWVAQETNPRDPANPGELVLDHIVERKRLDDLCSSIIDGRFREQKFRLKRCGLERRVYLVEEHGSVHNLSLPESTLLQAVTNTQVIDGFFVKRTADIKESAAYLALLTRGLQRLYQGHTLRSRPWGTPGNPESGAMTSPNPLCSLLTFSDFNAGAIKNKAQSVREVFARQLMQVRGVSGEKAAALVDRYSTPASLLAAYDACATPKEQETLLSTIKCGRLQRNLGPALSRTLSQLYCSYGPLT
T1 sequence (Q96AY2 1-570 partner): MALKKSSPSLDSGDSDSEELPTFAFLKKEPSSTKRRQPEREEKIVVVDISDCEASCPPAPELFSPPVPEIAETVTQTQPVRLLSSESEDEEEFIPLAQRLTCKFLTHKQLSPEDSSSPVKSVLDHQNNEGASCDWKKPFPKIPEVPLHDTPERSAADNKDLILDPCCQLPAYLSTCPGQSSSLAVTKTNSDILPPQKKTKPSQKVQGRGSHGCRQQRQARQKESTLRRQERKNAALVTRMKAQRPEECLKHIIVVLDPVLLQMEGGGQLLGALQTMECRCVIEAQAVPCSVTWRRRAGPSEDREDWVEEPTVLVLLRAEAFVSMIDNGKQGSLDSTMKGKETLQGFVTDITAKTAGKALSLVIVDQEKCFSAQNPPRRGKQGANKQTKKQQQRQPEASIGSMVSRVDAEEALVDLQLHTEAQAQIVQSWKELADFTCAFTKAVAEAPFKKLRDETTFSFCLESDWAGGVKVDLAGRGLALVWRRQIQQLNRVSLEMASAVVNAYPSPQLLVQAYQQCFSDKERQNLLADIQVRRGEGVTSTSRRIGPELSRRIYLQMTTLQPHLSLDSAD
Description: In vitro assays were used for the determination of compound's IC50 values for inhibition of individual nucleases, i.e., MUS81/EME1, FEN1, EXO1, and MRE11. To generate IC50 values, concentration of compound was plotted against relative nuclease activity (in %). The dose-response curves were generated from inhibition data, from 5 point serial dilutions of inhibitory compounds, each in triplicate and fitted to a standard sigmoid curve. IC50 values were derived by standard nonlinear regression analysis.
All tested compounds were diluted in 100% DMSO (dimethylsulfoxide) to prepare working stocks with different concentrations. To keep the DMSO concentration constant in every reaction, always 0.5 μl of the compound stock was added to the reaction buffer. The reaction buffer differs depending on the enzyme tested. Also concentration of the compounds in the reaction depends on the particular enzyme, since the inhibitory effect of the compounds vary between the enzymes. Nevertheless, always doubling dilutions in the range 200-0.8 μM was used. The compound was added as the first component in the reaction buffer, followed by the enzyme addition. Short (15 minutes) pre-incubation step followed before the reaction was initiated by addition of DNA substrate (5 nM).
As a negative control, DNA substrate specific for each particular enzyme without the addition of the enzyme and the compound was used. The positive control contained all components of the reaction, except the compound of interest. However, to compensate for solvent effects, DMSO (at a final concentration of 2.5%) was included in the reaction.
For this experiment we prepared short fluorescently labeled oligonucleotide-based DNA substrates with specific structures reflecting the biochemical activities of tested individual nucleases (Table 1). These substrates were prepared by annealing of synthetic oligonucleotides purchased from VBC Biotech. Composition of each substrate is indicated below the table; the corresponding oligonucleotides were combined in equimolar ratios. For visualization, each substrate was labeled by fluorescent dye (fluorescein), which can be detected in the gel using appropriate imaging system (FLA-9000, Fuji) with filters for particular wavelengths (excitation: 485 nm, emission: 535 nm).
Nuclease assays were performed in reaction buffer specific for particular enzyme: MUS81/EME1 (50 mM Tris pH=7.5, 5 mM MgCl2, 1 mM DTT a 100 μg/ml BSA), MRE11 (30 mM Bis-Tris pH=7.0, 50 μg/ml BSA, 1 mM DTT a 250 μM MnCl2), EXO1 and FEN1 (50 mM Tris pH=7.5, 1 mM MgCl2, 1 mM DTT a 100 μg/ml BSA). The individual reactions were prepared by mixing with highly purified enzyme (MUS81/EME1 (5 nM), MRE11 (5 nM), EXO1 (5 nM) or FEN1 (10 nM); purification protocols described below), and different concentration of inhibitor (mentioned above) in corresponding reaction buffer. The final volume of the reaction was 20 μl. After short pre-incubation (15 minutes at room temperature), the reaction was initiated by addition of 5 nM of corresponding fluorescently labeled DNA substrate (3′ flap for MUS81/EME1, 5′ flap for MRE11 and FEN1, 3′ OH for EXO1; see FIG. 1) and incubated for 15 minutes at 30° C. Next, the reaction was stopped and deproteinized by addition of 2 μl of stop buffer, containing 0.1% SDS and 500 μg/ml proteinase K, and incubated for additional 5 minutes at 30° C. Then the loading dye, containing glycerol (60% glycerol, 10 mM Tris pH=7.4, 60 mM EDTA a 0.1% Orange G), was added to each reaction ( 1/10 of the reaction volume), and the whole mixture was subjected to electrophoresis in 10% polyacrylamide native gel (110 V, 40 min, 1× TBE). Fluorescently labeled DNA was detected by FLA-9000 scanner (Fuji) and the result was evaluated using Multi-Gauge V3.2 software (Fuji).
The Mus81/Eme1 expression construct was a kind gift from Dr. Steve West (Cancer Research UK). Briefly, the nuclease complex was purified as follows. […]

SMILES: CC(C)(C)[Si](OCc1cc2nnc(-c3nc4ccccc4[nH]3)c(N)n2n1)(c1ccccc1)c1ccccc1
- melting point: 233.5 to 234 °C

SMILES: CCc1cc2nnc(-c3nc4ccccc4[nH]3)c(N)n2n1 [Preparative Example 5B]
- IC50 (MUS81/EME1): < 50 µM

SMILES: CC(C)c1nn2c(N)c(-c3nc4ccccc4[nH]3)nnc2c1-c1ccc(F)cc1 [Preparative Example 5D]
- IC50 (MUS81/EME1): < 50 µM

SMILES: CC(C)(C)c1cc2nnc(-c3nc4ccccc4[nH]3)c(N)n2n1 [Preparative Example 5F]
- IC50 (MUS81/EME1): < 50 µM

SMILES: Nc1c(-c2nc3ccccc3[nH]2)nnc2cc(-c3ccccc3Cl)nn12 [Preparative Example 5G]
- IC50 (MUS81/EME1): < 50 µM

SMILES: Nc1c(-c2nc3ccccc3[nH]2)nnc2cc(-c3ccccc3-c3ccccc3)nn12 [Preparative Example 5L]
- melting point: > 250 °C

SMILES: CCc1nn2c(N)c(-c3nc4ccccc4n3Cc3ccccc3)nnc2c1-c1ccc(F)cc1 [Preparative Example 5M]
- IC50 (MUS81/EME1): < 50 µM

SMILES: CCc1cc2nnc(-c3nc4ccccc4n3Cc3ccccc3)c(N)n2n1 [Preparative Example 5N]
- IC50 (MUS81/EME1): < 50 µM

SMILES: Nc1c(-c2nc3ccccc3[nH]2)nnc2ccnn12 [Preparative Example 5O]
- IC50 (MUS81/EME1): > 50 µM

SMILES: Nc1c(-c2nc3ccccc3[nH]2)nnc2c(-c3ccc(F)cc3)cnn12 [Preparative Example 5P]
- IC50 (MUS81/EME1): > 50 µM

SMILES: CCc1nn2c(N)c(-c3nc4ccccc4[nH]3)nnc2c1-c1cccc(-c2ccccc2)c1 [Preparative Example 5Y]
- IC50 (MUS81/EME1): < 10 µM

SMILES: CCc1nn2c(N)c(-c3nc4ccccc4[nH]3)nnc2c1-c1cccc(C(=O)OC)c1 [Preparative Example 5Z]
- IC50 (MUS81/EME1): < 10 µM

SMILES: CCc1nn2c(N)c(-c3nc4ccccc4[nH]3)nnc2c1-c1cccc(C(=O)O)c1 [Preparative Example 5Zb]
- IC50 (MUS81/EME1): < 10 µM

SMILES: Nc1c(-c2nc3ccccc3[nH]2)nnc2cc(CO)nn12 [Preparative Example 6]
- IC50 (MUS81/EME1): > 50 µM

SMILES: Nc1c(-c2nc3ccccc3[nH]2)nnc2cc(C=O)nn12 [Preparative Example 7]
- melting point: > 250 °C

SMILES: CCc1nn2c(O)c(-c3nc4ccccc4[nH]3)nnc2c1-c1ccc(F)cc1 [Preparative Example 8A]
- IC50 (MUS81/EME1): < 10 µM

SMILES: CCc1nn2c(N)c(C#N)nnc2c1-c1ccc(F)cc1 [Preparative Example 11]
- melting point: > 215 °C (dec.)
- IC50 (MUS81/EME1): > 50 µM

SMILES: CCc1nn2c(N)c(C(N)=O)nnc2c1-c1ccc(F)cc1 [Preparative Example 12]
- IC50 (MUS81/EME1): > 50 µM

SMILES: CCc1nn2c(N)c(-c3nc4ccccc4[nH]3)nnc2c1Br [Preparative Example 13]
- melting point: > 250 °C

SMILES: CS(=O)(=O)c1ccc(-c2cnn3c(O)c(-c4nc5ccccc5n4Cc4ccccc4)nnc23)cc1 [Preparative Example 17A]
- IC50 (MUS81/EME1): < 10 µM

SMILES: O=[N+]([O-])c1ccc(-c2cnn3c(O)c(-c4nc5ccccc5n4Cc4ccccc4)nnc23)cc1 [Preparative Example 17B]
- IC50 (MUS81/EME1): < 10 µM

SMILES: Oc1c(-c2nc3ccccc3n2Cc2ccccc2)nnc2c(-c3ccsc3)cnn12 [Preparative Example 17C]
- IC50 (MUS81/EME1): < 50 µM

SMILES: Oc1c(-c2nc3ccccc3n2Cc2ccccc2)nnc2c(-c3ccncc3)cnn12 [Preparative Example 17D]
- IC50 (MUS81/EME1): < 10 µM

SMILES: Cn1ccc(-c2cnn3c(O)c(-c4nc5ccccc5n4Cc4ccccc4)nnc23)n1 [Preparative Example 17E]
- IC50 (MUS81/EME1): < 50 µM

SMILES: CS(=O)(=O)c1ccc(-c2cnn3c(O)c(-c4nc5ccccc5[nH]4)nnc23)cc1 [Preparative Example 18A]
- IC50 (MUS81/EME1): < 10 µM

SMILES: Cn1ccc(-c2cnn3c(O)c(-c4nc5ccccc5[nH]4)nnc23)n1 [Preparative Example 18B]
- IC50 (MUS81/EME1): < 50 µM

SMILES: CCc1nn2c(O)c(-c3nc4cc(C)c(C)cc4[nH]3)nnc2c1-c1ccc(F)cc1 [Preparative Example 21]
- IC50 (MUS81/EME1): < 10 µM
